Where a chain is given by its changes, count along the chain named.
Assays:
hVAChT M316A = target: T1, hVAChT M316A (Homo sapiens, UniProt Q16572, M316A); test: [3H]vesamicol saturation binding; conditions: pH 7.4
T1 sequence (Q16572 1-532 M316A): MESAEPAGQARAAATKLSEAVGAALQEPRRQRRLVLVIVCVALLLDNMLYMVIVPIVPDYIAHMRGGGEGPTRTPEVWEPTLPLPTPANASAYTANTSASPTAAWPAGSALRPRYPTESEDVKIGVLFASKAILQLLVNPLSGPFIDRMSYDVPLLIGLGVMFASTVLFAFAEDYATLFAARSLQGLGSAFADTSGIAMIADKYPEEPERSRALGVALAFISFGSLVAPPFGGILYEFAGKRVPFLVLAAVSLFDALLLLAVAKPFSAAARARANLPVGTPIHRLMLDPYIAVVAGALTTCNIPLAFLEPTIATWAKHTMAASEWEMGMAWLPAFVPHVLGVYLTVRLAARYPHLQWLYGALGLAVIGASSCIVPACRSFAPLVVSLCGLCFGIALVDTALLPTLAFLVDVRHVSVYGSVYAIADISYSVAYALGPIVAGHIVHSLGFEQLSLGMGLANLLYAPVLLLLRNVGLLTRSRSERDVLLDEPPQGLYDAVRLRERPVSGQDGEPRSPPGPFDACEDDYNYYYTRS

hVAChT W325F = target: T2, hVAChT W325F (Homo sapiens, UniProt Q16572, W325F); test: [3H]ACh transport; type: biochemical
T2 sequence (Q16572 1-532 W325F): T1 sequence (Q16572 1-532 M316A) with A316M, W325F

hVAChT F392A = target: T3, hVAChT F392A (Homo sapiens, UniProt Q16572, F392A); test: [3H]ACh transport; type: biochemical
T3 sequence (Q16572 1-532 F392A): T1 sequence (Q16572 1-532 M316A) with A316M, F392A

hVAChT K317A = target: T4, hVAChT K317A (Homo sapiens, UniProt Q16572, K317A); test: ACh equilibrium binding by competition against [3H]vesamicol
T4 sequence (Q16572 1-532 K317A): T1 sequence (Q16572 1-532 M316A) with A316M, K317A

[1] = read-out: KM, Michaelis-Menten constant for ACh transport, pH 7.4

Vmax/Bmax, ACh transport normalized to Bmax (hVAChT W325F; pH 7.4) [min⁻¹]	Km (hVAChT W325F; [1]) [µM]	Vmax/Bmax, ACh transport normalized to Bmax (hVAChT F392A; pH 7.4) [min⁻¹]	Km (hVAChT F392A; [1]) [µM]	Kd (hVAChT K317A) [mM]	FHA, fraction of the ACh sites that have high affinity (hVAChT K317A; K317A hVAChT, pH 7.4)	Structure (SMILES)	Bmax, maximal specific [3H]vesamicol binding (VAChT expression level) (hVAChT M316A) [pmol/mg]
–	–	–	–	–	–	O[C@@H]1CCCC[C@H]1N1CCC(c2ccccc2)CC1 (racemic) [vesamicol, ( )-trans-2-(4-phenylpiperidino)cyclohexanol]	38 ± 2
5.0 ± 0.5	1000 ± 300	11 ± 1	520 ± 110	6.9 ± 1.2	0.72 ± 0.06	CC(=O)OCC[N+](C)(C)C [ACh, acetylcholine]	–

Reference: PMC2962730 (Journal of neurochemistry, 2010)
